Data reported in patent EP4603105A1, “PHARMACEUTICAL COMPOSITION CONTAINING CYCLIC COMPOUND HAVING SELECTIVE KRAS INHIBITORY EFFECT AGAINST HRAS AND NRAS” (CHUGAI SEIYAKU KABUSHIKI KAISHA, priority 2022, dated 2024).
Where two headings read alike, the source gives them in different places. *1 amine or outer side, *2 acyl side, *3 side chain or, on linkers, in order; H or OH if unused. Where a SMILES comes first, the peptide text is derived from it. Bridges are numbered along the chain shown (N, C = ends). [ ]: non-standard residue; d: D form. The star is where a group is joined. hPhe(3-Cl-4-CF3) = N[C@@H](CCc1ccc(C(F)(F)F)c(Cl)c1)C(=O)O; X43 = COCCCN([C@@H](Cc1ccc(C(F)(F)F)cc1)C(=O)[*:2])[*:1]; NPrPhe(4-CF3) = CCCN[C@@H](Cc1ccc(C(F)(F)F)cc1)C(=O)O; NMePhe(4-CF3) = CN[C@@H](Cc1ccc(C(F)(F)F)cc1)C(=O)O; Morpholine(3S-CO) = O=C(O)[C@@H]1COCCN1; NMeGly(cPent) = CN[C@H](C(=O)O)C1CCCC1; NMeD = CN[C@@H](CC(=O)O)C(=O)O; NMeL = CN[C@@H](CC(C)C)C(=O)O; Morpholide = C1CN(*)CCO1; NMeA = CN[C@@H](C)C(=O)O; Ac5c = NC1(C(=O)O)CCCC1; Aze = O=C(O)[C@@H]1CCN1; NPrGly = CCCNCC(=O)O; Sar = CNCC(=O)O

Key:
[1] = target: GDP-bound NRAS wild-type protein (Homo sapiens, UniProt P01111); assay: Binding to NRAS by surface plasmon resonance (SPR), KD and KD ratio to KRAS
Sequence of GDP-bound NRAS wild-type protein (P01111 whole entry): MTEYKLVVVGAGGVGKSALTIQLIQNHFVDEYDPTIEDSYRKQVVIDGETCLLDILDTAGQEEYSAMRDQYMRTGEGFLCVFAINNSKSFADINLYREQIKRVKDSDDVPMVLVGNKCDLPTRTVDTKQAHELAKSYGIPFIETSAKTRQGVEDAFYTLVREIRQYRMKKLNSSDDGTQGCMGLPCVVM
Procedure, shortened: (§1)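 Each cycle, GDP-bound biotin-Avi RAS was captured (~100–300 RU), compound concentrations were injected low to high for 75 s each at 100 µL/min, then the chip was regenerated. Buffer: HBS pH 7.4, 10 mM MgCl2, 10 µM GDP, 1 mM DTT, 4% DMSO; 30°C. KD from a 1:1 binding model.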

[2] = target: HRAS wild-type protein (Homo sapiens, UniProt P01112); assay: Binding to HRAS by surface plasmon resonance (SPR), KD and KD ratio to KRAS
Sequence of HRAS wild-type protein (P01112 whole entry): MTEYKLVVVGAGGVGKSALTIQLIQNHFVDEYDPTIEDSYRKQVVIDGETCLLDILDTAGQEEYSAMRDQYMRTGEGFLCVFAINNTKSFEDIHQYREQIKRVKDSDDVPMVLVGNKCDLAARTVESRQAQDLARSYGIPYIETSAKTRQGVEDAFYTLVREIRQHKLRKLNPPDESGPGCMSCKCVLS
Procedure, shortened: as §1

[3] = test system: human lung cancer strain NCI-H441; type: cell-based
Procedure, shortened: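 Signal came from […] measured per well once the reagent was added. Beforehand, cells were cultured at 37°C and 5% carbon dioxide on a compound series serially diluted in dimethyl sulfoxide.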

[4] = ratio of KD for GDP-bound NRAS wild-type protein to KD for KRAS
[5] = ratio of KD for HRAS wild-type protein to KD for KRAS
[6] = ratio of KD value for GDP-bound NRAS wild-type protein to KD value for KRAS (SPR)
[7] = ratio of KD value for HRAS wild-type protein to KD value for KRAS (SPR)

SMILES | IC50 [3] | NRAS /KRAS [1, 4] | HRAS /KRAS [2, 5] | NRAS /KRAS [1, 6] | HRAS /KRAS [2, 7] | IC50 ([3]; NCI-H441 cells, 4 days, CellTiter-Glo, read-out: NCl-H441 IC50)
CC[C@H](C)[C@@H]1NC(=O)[C@@H]2CCCCCCc3ccc(cc3)C[C@@H](C(=O)N(C)CC(=O)N[C@@H](CCc3ccc(C(F)(F)F)c(OC)c3)C(=O)N3CC4(CC4)C[C@H]3C(=O)NC3(CC(C)(C)C3)C(=O)N(C)[C@@H](C3CCCC3)C(=O)N(C)[C@H](C(=O)N(C)C)CC(=O)N2C)N2CC/C=C\C[C@@H](C2=O)N(C)C(=O)CN(C)C1=O [PP3069] | 2.1 nM | A (a compound having 10 or more and less than 20 is denoted as A) | B (a compound having 3 or more and less than 10 is denoted as B) | – | – | –
CCO[C@@H]1C[C@H]2C(=O)NC3(CC(F)(F)C3)C(=O)N(C)[C@@H](C3CCCC3)C(=O)N(C)[C@H](C(=O)N(C)C)CC(=O)N(C)[C@@H](CC(C)C)C(=O)N[C@@H]([C@@H](C)CC)C(=O)N(C)CC(=O)N(C)[C@H]3C/C=C\CCN(C3=O)[C@@H](Cc3ccc(C(F)(F)F)cc3)C(=O)N(C)CC(=O)N[C@@H](CCc3cc(F)c(C(F)(F)F)c(F)c3)C(=O)N2C1 [PP1741] | 2.3 nM | – | – | A (a compound having 10 or more and less than 20 is denoted as A) | B (a compound having 3 or more and less than 10 is denoted as B) | –
CCO[C@@H]1C[C@H]2C(=O)NC3(CCC3)C(=O)N(C)[C@@H](C(CC)CC)C(=O)N(C)[C@H](C(=O)N3CCCCC3)CC(=O)N(C)[C@H]3CCCC/C=C/c4ccc(cc4)C[C@@H](C(=O)N(C)CC(=O)N[C@@H](CCc4ccc(Cl)c(Cl)c4)C(=O)N2C1)N1CC/C=C\C[C@@H](C1=O)N(C)C(=O)CN(C)C(=O)[C@H]([C@@H](C)CC)NC3=O [PP3046] | 16.7 nM | AA (a compound having 20 or more is denoted as AA) | A (a compound having 10 or more and less than 20 is denoted as A) | – | – | –
CCCN1CC(=O)N(C)CC(=O)N(CCC)[C@@H](Cc2ccc(C(F)(F)F)cc2)C(=O)N(C)CC(=O)N[C@@H](CCc2ccc(C(F)(F)F)c(Cl)c2)C(=O)N2CCC[C@H]2C(=O)NC2(CCCC2)C(=O)N(C)[C@@H](C2CCCC2)C(=O)N(C)[C@H](C(=O)N2CCOCC2)CC(=O)N(C)[C@@H](CC(C)C)C(=O)N[C@@H]([C@@H](C)CC)C1=O [PP0253] ([NMeL]I[NPrGly][Sar][NPrPhe(4-CF3)][Sar][hPhe(3-Cl-4-CF3)]P[Ac5c][NMeGly(cPent)][NMeD]-Morpholide; lactam N-11) | 15.1 nM | B (a compound having 3 or more and less than 10 is denoted as B) | B (a compound having 3 or more and less than 10 is denoted as B) | – | – | –
CCO[C@@H]1C[C@H]2C(=O)NC3(CC(C)(C)C3)C(=O)N(C)[C@@H](C3CCCC3)C(=O)N(C)[C@H](C(=O)N3CCCCC3)CC(=O)N(C)[C@H]3CCC/C=C/c4ccc(cc4)C[C@@H](C(=O)N(C)CC(=O)N[C@@H](CCc4cc(F)c(C(F)(F)F)c(F)c4)C(=O)N2C1)N1CC/C=C\C[C@@H](C1=O)N(C)C(=O)CN(C)C(=O)[C@H]([C@@H](C)CC)NC3=O [PP2573] | 10.1 nM | A (a compound having 10 or more and less than 20 is denoted as A) | A (a compound having 10 or more and less than 20 is denoted as A) | – | – | –
CCOC[C@H]1C(=O)N[C@@H]([C@@H](C)CC)C(=O)N(C)CC(=O)N(C)[C@H]2C/C=C\CCN(C2=O)[C@@H](Cc2ccc(C3CC3)cc2)C(=O)N(C)CC(=O)N[C@@H](CCc2ccc(C(F)(F)F)c(OC)c2)C(=O)N2C[C@@H](C)C[C@H]2C(=O)NC2(CC(C)(C)C2)C(=O)N(C)[C@@H](C2CCCC2)C(=O)N(C)[C@H](C(=O)N(C)CC)CC(=O)N1C [PP2700] | – | A (a compound having 10 or more and less than 20 is denoted as A) | B (a compound having 3 or more and less than 10 is denoted as B) | – | – | 23.1 nM
CC[C@H](C)[C@@H]1NC(=O)[C@H](CC(C)C)N(C)C(=O)C[C@@H](C(=O)N2CCOCC2)N(C)C(=O)[C@H](C2CCCC2)N(C)C(=O)C2(CCCC2)NC(=O)[C@@H]2CCCN2C(=O)[C@H](CCc2ccc(C(F)(F)F)c(Cl)c2)NC(=O)CN(C)C(=O)[C@H](Cc2ccc(C(F)(F)F)cc2)N(C)C(=O)CN(C)C(=O)CN(C)C1=O [PP0076] ([NMeL]I[Sar][Sar][NMePhe(4-CF3)][Sar][hPhe(3-Cl-4-CF3)]P[Ac5c][NMeGly(cPent)][NMeD]-Morpholide; lactam N-11) | 10.9 nM | C (A compound having a KD ratio of 0.1 or more and less than 3 is denoted as C) | C (A compound having a KD ratio of 0.1 or more and less than 3 is denoted as C) | – | – | –
CCO[C@@H]1C[C@H]2C(=O)NC3(CC(C)(C)C3)C(=O)N(C)[C@@H](C3CCCC3)C(=O)N(C)[C@H](C(=O)N3CCCC3)CC(=O)N(C)[C@H]3CCCC/C=C/c4ccc(cc4)C[C@@H](C(=O)N(C)CC(=O)N[C@@H](CCc4ccc(Cl)c(Cl)c4)C(=O)N2C1)N1CC/C=C\C[C@@H](C1=O)N(C)C(=O)CN(C)C(=O)[C@H]([C@@H](C)CC)NC3=O [PP2593] | 11.5 nM | A (a compound having 10 or more and less than 20 is denoted as A) | A (a compound having 10 or more and less than 20 is denoted as A) | – | – | –
CC[C@H](C)[C@@H]1NC(=O)[C@H](CC(C)C)N(C)C(=O)C[C@@H](C(=O)N(C)C)N(C)C(=O)[C@H](C2CCCC2)N(C)C(=O)C2(CC(C)(C)C2)NC(=O)[C@@H]2CCCN2C(=O)[C@H](CCc2cc(F)c(C(F)(F)F)c(F)c2)NC(=O)CN(C)C(=O)[C@H](Cc2ccc(C(F)(F)F)cc2)N2CC/C=C\C[C@@H](C2=O)N(C)C(=O)CN(C)C1=O [PP1727] | 4 nM | – | – | A (a compound having 10 or more and less than 20 is denoted as A) | A (a compound having 10 or more and less than 20 is denoted as A) | –

More lines, in order of falling IC50 [3], values ahead:

IC50 [3] | SMILES | NRAS /KRAS [1, 4] | HRAS /KRAS [2, 5] | NRAS /KRAS [1, 6] | HRAS /KRAS [2, 7] | IC50 ([3]; NCI-H441 cells, 4 days, CellTiter-Glo, read-out: NCl-H441 IC50)
154 nM | CCO[C@@H]1C[C@H]2C(=O)NC3(CCC3)C(=O)N(C)[C@@H](C3CCCC3)C(=O)N(C)[C@H](C(=O)N(C)C)CC(=O)N(C)[C@@H](Cc3ccc(C)cc3)C(=O)N[C@@H]([C@@H](C)CC)C(=O)N(C)CC(=O)N(C)[C@H]3CCCCCN(C3=O)[C@@H](Cc3ccc(C(F)(F)F)cc3)C(=O)N(C)CC(=O)N[C@@H](CCc3cc(F)c(C(F)(F)F)c(F)c3)C(=O)N2C1 [PP0943] | B (a compound having 3 or more and less than 10 is denoted as B) | B (a compound having 3 or more and less than 10 is denoted as B) | – | – | –
35 nM | CCCN1C(=O)[C@@H]2CCN2C(=O)[C@H](C)N(C)C(=O)[C@H]([C@@H](C)CC)NC(=O)[C@H](CC(C)C)N(C)C(=O)C[C@@H](C(=O)N2CCOCC2)N(C)C(=O)[C@H](C2CCCC2)N(C)C(=O)C2(CCCC2)NC(=O)[C@@H]2COCCN2C(=O)[C@H](CCc2ccc(C(F)(F)F)c(Cl)c2)NC(=O)CN(C)C(=O)[C@@H]1Cc1ccc(C(F)(F)F)cc1 [PP0286] ([NMeL]I[NMeA][Aze][NPrPhe(4-CF3)][Sar][hPhe(3-Cl-4-CF3)][Morpholine(3S-CO)][Ac5c][NMeGly(cPent)][NMeD]-Morpholide; lactam N-11) | C (A compound having a KD ratio of 0.1 or more and less than 3 is denoted as C) | B (a compound having 3 or more and less than 10 is denoted as B) | – | – | –
32.2 nM | CC[C@H](C)[C@@H]1NC(=O)[C@H](CC(C)C)N(C)C(=O)C[C@@H](C(=O)N2CCOCC2)N(C)C(=O)[C@H](C2CCCC2)N(C)C(=O)C2(CCCC2)NC(=O)[C@@H]2CCCN2C(=O)[C@H](CCc2ccc(C(F)(F)F)c(Cl)c2)NC(=O)CN(C)C(=O)[C@H](Cc2ccc(C)cc2)N2CCCCC[C@@H](C2=O)N(C)C(=O)CN(C)C1=O [PP0317] | B (a compound having 3 or more and less than 10 is denoted as B) | B (a compound having 3 or more and less than 10 is denoted as B) | – | – | –
1.6 nM | CCO[C@@H]1C[C@H]2C(=O)NC3(CC(C)(C)C3)C(=O)N(C)[C@@H](C3CCCC3)C(=O)N(C)[C@H](C(=O)N(C)CC)CC(=O)N(C)[C@@H](CC)C(=O)N[C@@H]([C@@H](C)CC)C(=O)N(C)CC(=O)N(C)[C@H]3C/C=C\CCN(C3=O)[C@@H](Cc3ccc(C(F)(F)F)cc3)C(=O)N(C)CC(=O)N[C@@H](CCc3ccc(C(F)(F)F)c(OC)c3)C(=O)N2C1 [PP1653] | – | – | A (a compound having 10 or more and less than 20 is denoted as A) | A (a compound having 10 or more and less than 20 is denoted as A) | –
1.6 nM | CC[C@H](C)[C@@H]1NC(=O)[C@H](CC(C)C)N(C)C(=O)C[C@@H](C(=O)N2CCOCC2)N(C)C(=O)[C@H](C2CCCC2)N(C)C(=O)C2(CCCC2)NC(=O)[C@@H]2CCCN2C(=O)[C@H](CCc2ccc(C(F)(F)F)c(Cl)c2)NC(=O)CN(C)C(=O)[C@H](Cc2ccc(C(F)(F)F)cc2)N(CCCOC)C(=O)[C@@H]2CCN2C(=O)[C@H](C)N(C)C1=O [PP0119] ([NMeL]I[NMeA][Aze][X43][Sar][hPhe(3-Cl-4-CF3)]P[Ac5c][NMeGly(cPent)][NMeD]-Morpholide; lactam N-11) | C (A compound having a KD ratio of 0.1 or more and less than 3 is denoted as C) | C (A compound having a KD ratio of 0.1 or more and less than 3 is denoted as C) | – | – | –
